Test results as given in article PMC2137757 (The Journal of Experimental Medicine, 1964).
Where two headings read alike, the source gives them in different places.

Tests used:
adrenal cortex [1] = test: Induced protection of adrenal against 7,12-DMBA; format: in vivo, rat; conditions: for Protection of adrenal after repeated doses: 15 mg fed daily for 5 days before 7,12-DMBA
adrenal cortex [2] = test: Adrenal damage; conditions: for Pathological findings in adrenals: without hydrocarbons; for Adrenal damage: feeding
adrenal cortex [3] = conditions: cited from earlier work; for Protection of adrenal against 7,12-DMBA: single feeding
adrenal cortex [4] = conditions: far larger doses than of 7,12-DMBA required; cited from earlier work
[5] = system: menadione reductase (EC 1.6.5.2); test: Induction of menadione reductase in tissues; format: in vivo, rat; conditions: for Induction of menadione reductase in liver: single feeding, 24 hours
[6] = system: deoxyribonucleic acid of adrenal; format: in vivo, rat; conditions: Table VII; ethionine 25 mg i.p. at -24 hrs alone
[7] = polycyclic aromatic hydrocarbons

With CSCC[C@H](N)C(=O)O [methionine] the “Influence on aromatic protection against 7,12-DMBA” value (adrenal cortex [1]; methionine 50 mg as sole amino acid 1 hour before or 1 hour after 3-MC 2 mg) was “no influence on aromatic protection” and the “Pathological findings in adrenals” value (adrenal cortex [2]; injection of 50 mg) was “No pathological findings”.

With Cc1cccc2cc3c(cc12)c(C)cc1ccccc13 [6,8-Dimethylbenz[a]anthracene] the Adrenal damage (adrenal cortex [2]; 30 mg) was “adrenal damage did not occur”.

In the case of Nc1ccc2c(c1)Cc1ccccc1-2 [2-aminofluorene], the “Protection of adrenal against 7,12-DMBA” value (adrenal cortex [3]; aromatic amines) is given as “protection of this sort was afforded”.

For CC12OOC(C)(c3ccccc31)c1c2ccc2ccccc12 (stereo not drawn) [transannular peroxide of 7,12-DMBA], the Adrenal protection (adrenal cortex [1]; feeding 10 mg) was “complete adre- nal protection”, the “Animals with protection of adrenals” value (adrenal cortex [1]; single feeding of 2 mg, group of 5 rats) was 3 and the Adrenal damage (adrenal cortex [2]; 50 mg) was “did not cause injury to the adrenals”.

For Nc1cc2c3ccccc3ccc2c2ccccc12 [6-Aminochrysene], the “Protection of adrenal against 7,12-DMBA” value (adrenal cortex [3]; aromatic amines) is listed as “protection of this sort was afforded”.

With CCC1(C2=CCCCC2)C(=O)NC(=O)NC1=O [cyclobarbital, 5-(1-cycloohexanyl)-5-ethylbarbituric acid] the “Protection of adrenal after repeated doses” value (adrenal cortex [1]) was “did not induce pro- tection”.

In the case of Clc1ccc(C(c2ccccc2Cl)C(Cl)Cl)cc1 (stereo not drawn) [o,p'-DDD, 2,2-bis(2-chlorophenyl,4-chlorophenyl)-l, 1-dichloroethane], the “Adrenal necrosis (character)” value (adrenal cortex [4]) is given as “focal and patchy”.

For CC(C)(O)C(Cl)(Cl)Cl [chloretone, 1,1,1-tricbloro-2-methyl-2-propanol], the “Rats with protection of adrenals” value (adrenal cortex [1]; 15 mg fed daily for 5 days, group of 20 rats) was 7.

For CC(C)(C(=O)c1cccnc1)c1cccnc1 [2-methyl-I, 2-b/s(3-pyr-idyl)-1-propanone], the “Prevention of adrenal damage from 7,12-DMBA” value (adrenal cortex [3]; preliminary treatment of rats) is given as “prevented adrenal damage”.

With c1cc2ccc3cccc4ccc(c1)c2c34 [Pyrene] the “Induction of menadione reductase in liver” value [5] was “failed to induce this enzyme”.

In the case of c1ccc2cc3ccccc3cc2c1 [anthracene], the “Protection of adrenal against 7,12-DMBA” value (adrenal cortex [3]; [7]) is given as “protection of this sort was afforded”.

In the case of c1ccc2c(c1)ccc1c3ccccc3ccc21 [Chrysene], the “Induction of menadione reductase in liver” value [5] is reported as “induced a considerable in- crease”.

With Cc1c2ccccc2cc2c1cc(F)c1ccccc12 [5-Fluoro-7-methyl BaA] the Adrenals with hemorrhage (adrenal cortex [1]; Table III, dose 1 mg fed once day -1, 7,12-DMBA 5 mg i.v. day 0, adrenals day 3) was 0/6.

In the case of c1ccc2cc3c(ccc4ccccc43)cc2c1 [Benz[a]anthracene, benz[a]anthracene], the “Protection of adrenal against 7,12-DMBA” value (adrenal cortex [3]; [7]) is listed as “protection of this sort was afforded”.

For c1ccc2c(c1)ccc1ccccc12 [phenanthrene], the “Protection of adrenal against 7,12-DMBA” value (adrenal cortex [3]; [7]) is listed as “protection of this sort was afforded”.

With Cc1cccc2ccc3cc4ccccc4c(C)c3c12 [1,12-DMBA] the Adrenal damage (adrenal cortex [2]; 30 mg) was “adrenal damage did not occur”.

In the case of CCSCC[C@H](N)C(=O)O [ethionine], the “Elevation of menadione reductase in liver at 12 hours vs rats without ethionine” value ([5]; 3-MC 2.5 mg i.v. plus ethionine 25 mg i.p.) is reported as “significantly lower”, the “Time elevation of menadione reductase in liver first detected” value ([5]; 3-MC 2.5 mg i.v. plus ethionine 25 mg i.p. just after, Fig. 4) is reported as 8 h and the “Tritium content of adrenal” value [6] is reported as 0.122 ~clgm. The “Tritium content of adrenal, per cent of controls” value [6] was 92 per cent, the Adrenals at necropsy (adrenal cortex [1]; 3 doses of ethionine 25 mg at +1 minute, +4 hours, +8 hours after 3-MC 10 mg, 7,12-DMBA 5 mg) was “eliminated the protective effect of 3-MC” and the Adrenals at necropsy (adrenal cortex [1]; ethionine 25 mg 4 or 8 hours after 3-MC 2 mg, 7,12-DMBA 5 mg 24 hours later) was “yel- low adrenals”. The “Effect on 7,12-DMBA-produced adrenal apoplexy” value (adrenal cortex [1]; ethionine 25 mg or 50 mg 0.5 hours before 7,12-DMBA 5 mg, no protector) was “adrenal apoplexy was found at necropsy in all of the rats”, the Adrenals at necropsy (adrenal cortex [1]; single doses of ethionine 25 mg or 50 mg, 1 minute to 1 hour after 3-MC 10 mg, 7,12-DMBA 5 mg) was “yellow adrenals” and the “Pathological findings in adrenals” value (adrenal cortex [2]; injection of 25 to 75 mg) was “No pathological findings”.

With Cc1ccc2cc3c(ccc4cc(C)ccc43)cc2c1 [3,9-Dimethylbenz[alanthracene] the Adrenal damage (adrenal cortex [2]; 30 mg) was “adrenal damage did not occur”.

In the case of CCC1(CC)C(=O)NC(=O)NC1=O [barbital], the “Protection of adrenal after repeated doses” value (adrenal cortex [1]) is reported as “did not induce pro- tection”.

In the case of Nc1ccc2ccccc2c1 [2-naphthylamine], the “Protection of adrenal against 7,12-DMBA” value (adrenal cortex [3]; aromatic amines) is listed as “protection of this sort was afforded”.

For c1ccc2c(c1)cc1ccc3cccc4ccc2c1c34 [Benzo[a]pyrene, benzo[a]pyrene], the “Protection of adrenal against 7,12-DMBA” value (adrenal cortex [3]; [7]) is given as “protection of this sort was afforded” and the “Induction of menadione reductase in liver” value [5] is given as “induced synthesis of the enzyme”.
